In patent US20220153751A1, “BIFUNCTIONAL COMPOUNDS” (BioTheryX, Inc., priority 2018, published 2022):

How the values were obtained:
Type in all cases: cell-based
IKAROS = biological target: T1, IKAROS (Homo sapiens, UniProt Q13422+Q96SW2); test: IKAROS degradation assay (Western blot, MV-4-11 cells); details: MV4-11, 6-8 h
T1 construct: endogenous in cells; host or cells: MV-4-11
Procedure: (§1) MV-4-11 cells were grown in RPMI 1640 media supplemented with 10% fetal bovine serum, streptomycin and penicillin.
(§2) Cells were cultured at approximately 10^6 cells per mL and incubated in DMSO or the indicated compound for 6-8 h. Whole cell extracts were prepared using RIPA buffer according to manufacturer's protocol (Pierce). Briefly, 3×10^6 cells were washed once in PBS, the cell pellets were resuspended in RIPA buffer and allowed to incubate for 15 minutes on ice. Cells debris was removed by centrifugation and the cleared whole cell lysates were transferred to new tubes for further analysis.
(§3) For Western blot analysis, whole cell protein extracts were separated on 4-12% SDS-polyacrylamide gels, transferred to nitrocellulose and probed with the indicated primary antibodies. Membranes were subsequently washed and probed with the appropriate IRDye secondary antibodies (LI-COR). The signal was detected using the Odyssey Imaging System (LI-COR).
(§4) The following antibodies were used in these studies: Anti-eRF3/GSPT1: Abcam, ab126090 (Cambridge, Mass.); Anti-Ikaros: Abcam, ab191394 (Cambridge, Mass.); Anti-CK1α: Abcam, ab108296 (Cambridge, Mass.); Anti-CDK9: Santa Cruz Biotechnology, sc13130 (Dallas, Tex.); Anti-CDK16: Millipore Sigma, HPA001366 (St. Louis, Mo.); 3-actin (8H10comD10) mouse monoclonal antibody: Cell Signaling Technology, #3700 (Danvers, Mass.); IRDye 680RD Goat anti-rabbit antibody: LI-COR, 926-68071 (Lincoln, Nebr.); IRDye 800CW Goat anti-mouse antibody: LI-COR, 926-32210 (Lincoln, Nebr.).
(§5) CDK9 activities are shown in Table 4 at two different concentrations. CDK16 activities are shown in Table 5 at two different concentrations. In each of Tables 1-5, the % degradation values are reported as “A”, “B”, “C”, or “D”. “A” represents a % degradation value of less than 25% (value <25%). “B” represents a % degradation value of equal to or more than 25% and less than 50% (25%≤value<50%). “C” represents a % degradation value of equal to or more than 50% and less than 75% (50%≤value<75%). “D” represents a % degradation value of equal to or more than 75% (value ≥75%).

CK1α = biological target: T2, CK1α (Homo sapiens, UniProt P48729+Q96SW2); test: CK1α degradation assay (Western blot, MV-4-11 cells); details: MV4-11, 6-8 h
T2 construct: Whole cell extracts were prepared using RIPA buffer; endogenous in cells; host or cells: MV-4-11
T2 sequence (P48729 whole entry): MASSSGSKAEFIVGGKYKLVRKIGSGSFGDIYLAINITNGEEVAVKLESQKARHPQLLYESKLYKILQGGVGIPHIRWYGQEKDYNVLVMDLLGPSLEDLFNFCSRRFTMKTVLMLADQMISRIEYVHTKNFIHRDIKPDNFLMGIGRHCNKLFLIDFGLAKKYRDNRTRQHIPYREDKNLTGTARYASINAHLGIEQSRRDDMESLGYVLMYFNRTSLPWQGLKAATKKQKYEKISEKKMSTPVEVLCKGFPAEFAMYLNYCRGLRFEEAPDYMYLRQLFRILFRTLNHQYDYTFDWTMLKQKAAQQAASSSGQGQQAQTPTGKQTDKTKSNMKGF
T2 sequence (Q96SW2 whole entry): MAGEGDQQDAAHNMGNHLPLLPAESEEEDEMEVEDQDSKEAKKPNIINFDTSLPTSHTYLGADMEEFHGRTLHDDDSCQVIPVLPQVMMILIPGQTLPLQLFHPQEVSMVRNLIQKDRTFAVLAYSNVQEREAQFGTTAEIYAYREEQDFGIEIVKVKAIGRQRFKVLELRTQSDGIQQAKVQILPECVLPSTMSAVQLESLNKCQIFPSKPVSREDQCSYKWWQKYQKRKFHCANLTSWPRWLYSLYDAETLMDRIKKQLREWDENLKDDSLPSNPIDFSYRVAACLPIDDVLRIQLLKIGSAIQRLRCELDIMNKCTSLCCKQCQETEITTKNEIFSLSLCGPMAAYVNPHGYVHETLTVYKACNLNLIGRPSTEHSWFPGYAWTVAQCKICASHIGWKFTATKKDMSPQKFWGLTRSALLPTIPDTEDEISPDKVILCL
T2 sequence (Q16531 whole entry partner): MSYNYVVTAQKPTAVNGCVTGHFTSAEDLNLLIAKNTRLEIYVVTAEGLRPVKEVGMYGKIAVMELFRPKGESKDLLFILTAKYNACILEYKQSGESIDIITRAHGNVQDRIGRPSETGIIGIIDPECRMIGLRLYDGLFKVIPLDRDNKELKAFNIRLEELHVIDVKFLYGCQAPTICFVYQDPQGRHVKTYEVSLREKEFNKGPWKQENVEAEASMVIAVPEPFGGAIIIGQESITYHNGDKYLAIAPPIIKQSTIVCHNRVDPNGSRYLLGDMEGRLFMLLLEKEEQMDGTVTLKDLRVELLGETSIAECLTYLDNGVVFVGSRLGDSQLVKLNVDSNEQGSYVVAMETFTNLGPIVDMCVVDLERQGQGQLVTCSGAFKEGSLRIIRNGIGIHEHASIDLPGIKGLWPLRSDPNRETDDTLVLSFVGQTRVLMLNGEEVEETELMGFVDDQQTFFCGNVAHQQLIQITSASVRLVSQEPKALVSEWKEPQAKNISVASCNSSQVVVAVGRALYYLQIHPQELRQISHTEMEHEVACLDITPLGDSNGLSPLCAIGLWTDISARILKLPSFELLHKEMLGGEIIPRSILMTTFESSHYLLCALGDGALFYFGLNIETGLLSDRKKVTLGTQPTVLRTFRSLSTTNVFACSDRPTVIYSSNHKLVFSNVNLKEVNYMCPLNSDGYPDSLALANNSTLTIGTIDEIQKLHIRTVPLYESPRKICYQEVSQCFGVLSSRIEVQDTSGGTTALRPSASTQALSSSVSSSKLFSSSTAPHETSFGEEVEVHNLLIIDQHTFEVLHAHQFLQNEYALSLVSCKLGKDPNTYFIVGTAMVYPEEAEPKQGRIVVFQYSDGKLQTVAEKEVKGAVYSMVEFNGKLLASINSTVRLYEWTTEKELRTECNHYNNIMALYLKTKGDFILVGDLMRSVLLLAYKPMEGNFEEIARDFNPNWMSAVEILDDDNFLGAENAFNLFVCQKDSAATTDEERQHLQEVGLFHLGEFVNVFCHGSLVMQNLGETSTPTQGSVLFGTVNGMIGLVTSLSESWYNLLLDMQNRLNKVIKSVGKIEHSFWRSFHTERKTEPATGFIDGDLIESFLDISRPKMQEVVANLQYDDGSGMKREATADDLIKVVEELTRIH
Procedure: as §1, §2, §3, §4, §5

MOLM-13 cells = test: MOLM-13 cell viability assay (CellTiter-Glo); details: Homo sapiens, MOLM-13, 72 h, 3 days, read-out: MOLM-13 Cell Viability % DMSO at 1 μM
In short: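 MOLM-13 cells at 2500 cells/well were exposed to compound for 3 days at 37 °C. Viability was read by CellTiter-Glo luminescence and expressed as % of DMSO control, binned A (<50%), B (50–<70%), C (70–<90%) or D (≥90%).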

IL-6 = IL-6 inhibition assay, LPS-induced PBMCs / CD14+ monocytes (Meso Scale); details: 1 h pretreatment, 100 ng/mL LPS 18-24 h
Procedure: (§6) Either frozen primary blood mononuclear cells (PBMCs) or frozen CD14+ mobilized peripheral blood monocytes were purchased from AllCells (PB003F, Normal Peripheral Blood MNC (Alameda, Calif.)). Cells were quick thawed, washed 1-time with RPMI-1640 (10% FBS/1% Pen-Strep) and plated in 96 well plates at 200,000 cells per well. Cells were pretreated with DMSO only or with the indicated compound for 1 h and then induced with 100 ng/mL lipopolysaccharide (LPS) for 18-24 h. The supernatant was analyzed for IL-1β, IL-6, and TNFα, using Meso Scale assay according to manufacturer's protocol. The negative control wells were treated with DMSO.
(§7) In Table 6, the % inhibition values are reported as “A”, “B”, “C”, or “D”. “A” represents a % inhibition value of less than 50% (value <50%). “B” represents a % inhibition value of equal to or more than 50% and less than 70% (50%≤value<70%). “C” represents a % inhibition value of equal to or more than 70% and less than 90% (70%≤value<90%). “D” represents a % inhibition value of equal or more than 90% (value ≥90%). In Table 7, the fold-change values are reported as “A”, “B”, “C”, or “D”. “A” represents a fold-change value of equal to or less than 0.1 (value ≤0.1). “B” represents a fold-change value of more than 0.1 and equal to or less than 0.5 (0.1<value≤0.5). “C” represents a fold-change value of more than 0.5 and equal to or less than 1 (0.5<value≤1). “D” represents a fold-change value of more than 1 (value >1).

TNF-α = TNF-α inhibition assay, LPS-induced PBMCs / CD14+ monocytes (Meso Scale); details: 1 h pretreatment, 100 ng/mL LPS 18-24 h
Procedure: as §6, §7

IL-1β = IL-1β inhibition assay, LPS-induced PBMCs / CD14+ monocytes (Meso Scale); details: 1 h pretreatment, 100 ng/mL LPS 18-24 h
Procedure: as §6, §7

GSPT1 = biological target: T3, GSPT1 (Homo sapiens, UniProt P15170+Q96SW2); test: GSPT1 degradation assay (Western blot, MV-4-11 cells); details: MV4-11, 6-8 h
T3 construct: Whole cell extracts were prepared using RIPA buffer; endogenous in cells; host or cells: MV-4-11
T3 sequence (P15170 whole entry): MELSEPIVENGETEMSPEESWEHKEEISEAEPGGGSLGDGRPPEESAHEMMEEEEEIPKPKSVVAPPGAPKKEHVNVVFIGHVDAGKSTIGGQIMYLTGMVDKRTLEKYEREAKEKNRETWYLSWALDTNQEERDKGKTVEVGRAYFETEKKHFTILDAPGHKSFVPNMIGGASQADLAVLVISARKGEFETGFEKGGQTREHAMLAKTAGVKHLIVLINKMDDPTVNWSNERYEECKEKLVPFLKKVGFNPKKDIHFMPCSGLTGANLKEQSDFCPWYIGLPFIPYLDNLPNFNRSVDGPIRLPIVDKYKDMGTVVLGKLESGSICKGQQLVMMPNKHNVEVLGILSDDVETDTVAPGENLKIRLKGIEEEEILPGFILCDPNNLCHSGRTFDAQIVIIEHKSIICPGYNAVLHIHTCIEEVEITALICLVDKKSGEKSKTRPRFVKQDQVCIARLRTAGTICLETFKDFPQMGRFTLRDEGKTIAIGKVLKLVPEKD
T3 sequence (Q96SW2 whole entry): as the sequence (Q96SW2 whole entry) above
T3 sequence (Q16531 whole entry partner): as the sequence (Q16531 whole entry partner) above
Procedure: as §1, §2, §3, §4, §5

CDK16 = biological target: T4, CDK16 (Homo sapiens, UniProt Q00536); test: CDK16 degradation assay (Western blot, MV-4-11 cells); details: 6-8 h
T4 construct: Whole cell extracts were prepared using RIPA buffer; endogenous in cells; host or cells: MV-4-11
T4 sequence (Q00536 whole entry): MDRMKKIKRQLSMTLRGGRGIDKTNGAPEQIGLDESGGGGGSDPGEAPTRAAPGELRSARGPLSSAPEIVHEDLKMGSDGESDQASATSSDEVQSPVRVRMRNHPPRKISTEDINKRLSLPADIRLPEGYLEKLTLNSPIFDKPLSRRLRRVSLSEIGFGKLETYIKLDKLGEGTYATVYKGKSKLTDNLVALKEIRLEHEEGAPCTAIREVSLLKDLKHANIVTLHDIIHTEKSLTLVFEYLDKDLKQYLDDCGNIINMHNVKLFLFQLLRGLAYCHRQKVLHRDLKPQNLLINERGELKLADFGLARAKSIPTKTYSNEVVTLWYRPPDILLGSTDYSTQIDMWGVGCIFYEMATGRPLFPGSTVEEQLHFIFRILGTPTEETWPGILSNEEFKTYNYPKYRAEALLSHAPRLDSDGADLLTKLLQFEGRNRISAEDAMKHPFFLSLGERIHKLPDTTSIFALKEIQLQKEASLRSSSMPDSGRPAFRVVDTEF
In short: (§8)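 MV-4-11 cells (~10^6 cells/mL, RPMI 1640 with 10% FBS) were treated with compound or DMSO for 6-8 h. RIPA whole-cell lysates were run on SDS-PAGE, immunoblotted and detected with IRDye secondaries. % degradation is binned (<25%, 25–50%, 50–75%, ≥75%); CDK9 and CDK16 were tested at two concentrations.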

CDK9 = biological target: T5, CDK9 (Homo sapiens, UniProt P50750); test: CDK9 degradation assay (Western blot, MV-4-11 cells); details: 6-8 h
T5 construct: Whole cell extracts were prepared using RIPA buffer; endogenous in cells; host or cells: MV-4-11
T5 sequence (P50750 whole entry): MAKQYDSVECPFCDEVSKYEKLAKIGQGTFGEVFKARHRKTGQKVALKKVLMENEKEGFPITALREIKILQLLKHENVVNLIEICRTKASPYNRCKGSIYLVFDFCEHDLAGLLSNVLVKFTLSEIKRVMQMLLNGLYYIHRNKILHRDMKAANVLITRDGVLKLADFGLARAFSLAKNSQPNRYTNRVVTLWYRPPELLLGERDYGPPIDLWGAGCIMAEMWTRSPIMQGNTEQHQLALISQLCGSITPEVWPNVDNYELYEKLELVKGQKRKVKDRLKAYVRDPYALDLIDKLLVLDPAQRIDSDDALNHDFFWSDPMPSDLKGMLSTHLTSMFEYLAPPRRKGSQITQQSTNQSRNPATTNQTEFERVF
In short: as §8

T1 sequence (Q13422 whole entry): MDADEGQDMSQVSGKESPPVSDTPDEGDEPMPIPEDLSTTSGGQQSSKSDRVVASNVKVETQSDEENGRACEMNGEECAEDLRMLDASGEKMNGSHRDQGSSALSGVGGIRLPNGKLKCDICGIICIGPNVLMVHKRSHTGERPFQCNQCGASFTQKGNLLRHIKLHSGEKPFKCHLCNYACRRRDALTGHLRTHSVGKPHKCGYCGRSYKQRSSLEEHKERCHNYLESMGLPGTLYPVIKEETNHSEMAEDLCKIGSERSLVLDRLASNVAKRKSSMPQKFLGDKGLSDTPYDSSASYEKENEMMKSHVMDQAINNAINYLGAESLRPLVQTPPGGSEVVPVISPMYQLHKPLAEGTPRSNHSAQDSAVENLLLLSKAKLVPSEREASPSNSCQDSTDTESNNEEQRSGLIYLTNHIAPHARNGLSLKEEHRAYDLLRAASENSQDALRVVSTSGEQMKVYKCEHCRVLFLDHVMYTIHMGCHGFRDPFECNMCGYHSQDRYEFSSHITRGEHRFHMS
T1 sequence (Q96SW2 whole entry): as the sequence (Q96SW2 whole entry) above
T1 sequence (Q16531 whole entry partner): as the sequence (Q16531 whole entry partner) above

SMILES | Dmax at 1 µM (IKAROS) [%] | Dmax at 1 µM (CK1α) [%] | Dmax at 1 µM (GSPT1) [%] | Dmax at 0.1 µM (CDK16; MV4-11, 0.1 μM) [%] | Dmax at 1 µM (CDK16; MV4-11, 1 μM) [%] | Dmax at 0.1 µM (CDK9; MV4-11, 0.1 μM) [%] | Dmax at 1 µM (CDK9; MV4-11, 1 μM) [%] | viability at 1 µM (MOLM-13 cells) [%] | inhibition at 1 µM (IL-6) [%] | inhibition at 1 µM (TNF-α) [%] | inhibition at 1 µM (IL-1β) [%]
CC(C)(C)c1cnc(CSc2cnc(NC(=O)C3CCN(CC(=O)NCCOCCNC(=O)NCc4ccc5c(c4)CN([C@H]4CCCC(=O)NC4=O)C5=O)CC3)s2)o1 [Compound 6, (S)—N-(5-(((5-(tert-butyl)oxazol-2-yl)methyl)thio)thiazol-2-yl)-1-(1-(2-(2,7-dioxoazepan-3-yl)-1-oxoisoindolin-5-yl)-3,11-dioxo-7-oxa-2,4,10-triazadodecan-12-yl)piperidine-4-carboxamide] | 25 to 50 | < 25 | – | – | – | – | – | < 50 | 50 to 70 | < 50 | < 50
CC(C)(C)c1cnc(CSc2cnc(NC(=O)C3CCN(CC(=O)NCCOCCNC(=O)NCc4cccc5c4CN([C@H]4CCCC(=O)NC4=O)C5=O)CC3)s2)o1 [Compound 7, (S)—N-(5-(((5-(tert-butyl)oxazol-2-yl)methyl)thio)thiazol-2-yl)-1-(1-(2-(2,7-dioxoazepan-3-yl)-1-oxoisoindolin-4-yl)-3,11-dioxo-7-oxa-2,4,10-triazadodecan-12-yl)piperidine-4-carboxamide] | < 25 | < 25 | – | – | – | – | – | < 50 | < 50 | < 50 | < 50
Cn1ncc(-c2nc(N[C@H]3CC[C@H](NC(=O)CCCCCCNCC(=O)NCc4ccc(COc5cccc6c5CN(C5CCC(=O)NC5=O)C6=O)cc4)CC3)ncc2Cl)c1CC1CC1 (some centres unmarked) [Compound 8, N-((1r,4r)-4-((5-chloro-4-(5-(cyclopropylmethyl)-1-methyl-1H-pyrazol-4-yl)pyrimidin-2-yl)amino)cyclohexyl)-7-((2-((4-(((2-(2,6-dioxopiperidin-3-yl)-1-oxoisoindolin-4-yl)oxy)methyl)benzyl)amino)-2-oxoethyl)amino)heptanamide] | 50 to 75 | – | < 25 | – | – | – | – | 70 to 90 | < 50 | < 50 | < 50
Cn1ncc(-c2nc(N[C@H]3CC[C@H](NCCOCCOCCOCCNCc4ccc(OCc5scc6c5CN([C@H]5CCC(=O)NC5=O)C6=O)cc4)CC3)ncc2Cl)c1CC1CC1 [Compound 69, (S)-3-(1-((4-(13-(((1r,4r)-4-((5-chloro-4-(5-(cyclopropylmethyl)-1-methyl-1H-pyrazol-4-yl)pyrimidin-2-yl)amino)cyclohexyl)amino)-5,8,11-trioxa-2-azatridecyl)phenoxy)methyl)-4-oxo-4H-thieno[3,4-c]pyrrol-5(6H)-yl)piperidine-2,6-dione] | ≥ 75 | 50 to 75 | – | – | – | – | – | < 50 | < 50 | 70 to 90 | 70 to 90

More lines, main results first:

Dmax at 1 µM (IKAROS) [%] | Dmax at 1 µM (CK1α) [%] | Dmax at 1 µM (GSPT1) [%] | Dmax at 0.1 µM (CDK16; MV4-11, 0.1 μM) [%] | Dmax at 1 µM (CDK16; MV4-11, 1 μM) [%] | Dmax at 0.1 µM (CDK9; MV4-11, 0.1 μM) [%] | Dmax at 1 µM (CDK9; MV4-11, 1 μM) [%] | SMILES | viability at 1 µM (MOLM-13 cells) [%] | inhibition at 1 µM (IL-6) [%] | inhibition at 1 µM (TNF-α) [%] | inhibition at 1 µM (IL-1β) [%]
50 to 75 | 50 to 75 | – | – | – | – | – | CC(C)(C)c1cnc(CSc2cnc(NC(=O)C3CCN(CC(=O)NCCCCNCc4ccc(OCc5scc6c5CN([C@H]5CCC(=O)NC5=O)C6=O)cc4)CC3)s2)o1 (stereo in doubt) [Compound 54, N-(5-(((5-(tert-butyl)oxazol-2-yl)methyl)thio)thiazol-2-yl)-1-(2-((4-((4-((5-(2,6-dioxopiperidin-3-yl)-4-oxo-5,6-dihydro-4H-thieno[3,4-c]pyrrol-1-yl)methoxy)benzyl)amino)butyl)amino)-2-oxoethyl)piperidine-4-carboxamide] | > 90 | – | – | –
– | 25 to 50 | 25 to 50 | – | – | – | – | CC(C)(C)c1cnc(CSc2cnc(NC(=O)C3CCN(CC(=O)NCCCCCNC(=O)NCc4scc5c4CN(C4CCC(=O)NC4=O)C5=O)CC3)s2)o1 (centres unmarked) [Compound 11, N-(5-(((5-(tert-butyl)oxazol-2-yl)methyl)thio)thiazol-2-yl)-1-(2-((5-(3-((5-(2,6-dioxopiperidin-3-yl)-4-oxo-5,6-dihydro-4H-thieno[3,4-c]pyrrol-1-yl)methyl)ureido)pentyl)amino)-2-oxoethyl)piperidine-4-carboxamide] | > 90 | – | – | –
– | < 25 | – | < 25 | 50 to 75 | 50 to 75 | ≥ 75 | Cn1ncc(-c2nc(N[C@H]3CC[C@H](NCCCCCCCCNC(=O)NCc4cc5c(s4)C(=O)N(C4CCC(=O)NC4=O)C5)CC3)ncc2Cl)c1CC1CC1 (some centres unmarked) [Compound 22, 1-(8-(((1r,4r)-4-((5-chloro-4-(5-(cyclopropylmethyl)-1-methyl-1H-pyrazol-4-yl)pyrimidin-2-yl)amino)cyclohexyl)amino)octyl)-3-((5-(2,6-dioxopiperidin-3-yl)-6-oxo-5,6-dihydro-4H-thieno[2,3-c]pyrrol-2-yl)methyl)urea] | > 90 | – | – | –
25 to 50 | < 25 | 25 to 50 | – | – | – | – | Cn1ncc(-c2nc(N[C@H]3CC[C@H](NCC(=O)NCCNC(=O)NCc4cc5c(s4)C(=O)N(C4CCC(=O)NC4=O)C5)CC3)ncc2Cl)c1CC1CC1 (some centres unmarked) [Compound 45, 2-(((1r,4r)-4-((5-chloro-4-(5-(cyclopropylmethyl)-1-methyl-1H-pyrazol-4-yl)pyrimidin-2-yl)amino)cyclohexyl)amino)-N-(2-(3-((5-(2,6-dioxopiperidin-3-yl)-6-oxo-5,6-dihydro-4H-thieno[2,3-c]pyrrol-2-yl)methyl)ureido)ethyl)acetamide] | > 90 | – | – | –
≥ 75 | 25 to 50 | 50 to 75 | – | – | – | – | Cn1ncc(-c2nc(N[C@H]3CC[C@H](NCC(=O)NCCOCCOCCOCCNc4cccc5c4C(=O)N(C4CCC(=O)NC4=O)C5=O)CC3)ncc2F)c1CC1CC1 (some centres unmarked) [Compound 50, 2-(((1r,4r)-4-((4-(5-(cyclopropylmethyl)-1-methyl-1H-pyrazol-4-yl)-5-fluoropyrimidin-2-yl)amino)cyclohexyl)amino)-N-(2-(2-(2-(2-((2-(2,6-dioxopiperidin-3-yl)-1,3-dioxoisoindolin-4-yl)amino)ethoxy)ethoxy)ethoxy)ethyl)acetamido] | > 90 | – | – | –
